For the series the following is noted: Crystal; Heating/Cooling curves.

Numbers after ± are expanded uncertainties.

On to `CCC1COC(=O)O1` (stereo unspecified) [1,2-butylene carbonate], for which the Normal melting temperature is -52.81 ± 1.2 °C.
The same measure for `COCCOC` [1,2-dimethoxyethane]: -69.74 ± 0.21 °C; for `C1COCCO1` [1,4-dioxane]: 11.33 ± 0.41 °C; for `CCn1cc[n+](C)c1.O=S(=O)([O-])C(F)(F)F` [1-ethyl-3-methylimidazolium trifluoromethanesulfonate]: -10.92 ± 0.6 °C.
Under `COCCC#N` [3-methoxypropanenitrile] stands -63.62 ± 0.53 °C.
Regarding `[2H]C([2H])([2H])S(=O)C([2H])([2H])[2H]` [(methyl sulfoxide)-d6], the Normal melting temperature was determined as 20.2 ± 0.21 °C.
The same measure for `CC#N` [acetonitrile]: -44.08 ± 0.41 °C.
For the molecule `CCOC(=O)OCC` [diethyl carbonate], the Normal melting temperature was -77.29 ± 0.6 °C.
The same measure for `COC(=O)OC` [dimethyl carbonate]: 3.91 ± 0.6 °C.
As to `C[S+](C)[O-]` [dimethyl sulfoxide], the Normal melting temperature amounted to 17.80 ± 2 °C.
On to `CCOC(=O)OC` [ethyl methyl carbonate], for which the Normal melting temperature is -55.01 ± 0.41 °C.
Under `CCOC(=O)CC` [ethyl propanoate] stands -73.44 ± 0.09 °C; under `O=C1OCCO1` [ethylene carbonate], 35.38 ± 0.21 °C; under `CCCCCCCC[N+](C)(CCCCCCCC)CCCCCCCC.O=C([O-])C(F)(F)F` [methyltrioctylammonium trifluoroacetate], 12.47 ± 0.21 °C.
The same measure for `C[N+](=O)[O-]` [nitromethane]: -29.79 ± 0.41 °C; for `O=C1CCCO1` [γ-butyrolactone]: -44.71 ± 0.21 °C.
